Converted amounts (≈) assume the structure as drawn. Where two headings read alike, the source gives them in different places.
How the values were obtained:
[1] = tested on: VZV strain Ellen; assay: VZV antiviral (ELISA) assay; format: cell-based; conditions: Human alphaherpesvirus 3, HFF; for inhibition at 10 µg/mL: read-out: % inhibition 10 ug/ml VZV
Summary of the method: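 HFF cells infected with VZV Ellen at multiplicity below 0.1 overnight, then mixed infected/uninfected cells seeded with compound in DMEM/2% FBS and incubated three days at 37°C, 5% CO2.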

[2] = tested on: HSV- I; assay: HSV antiviral (ELISA) assay; format: cell-based; conditions: read-out: IC50 (ug/ml) HSV
Summary of the method: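 IC50 from fluorescence versus untreated control in a cell ELISA: anti-glycoprotein D antibody, β-galactosidase-conjugated secondary, 4-methyl umbelliferone read at 365/450 nm. Vero cells (2% FBS DMEM) received compound 30 min pre-infection with HSV-1 at MOI 0.006, fixed ~24 h post-infection.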

[3] = tested on: HCMV recombinant mutant virus whose genome contains the prokaryotic beta-glucuronidase gene; assay: microbe, parasite or virus in culture; format: cell-based, human cytomegalovirus; conditions: Human betaherpesvirus 5, Fibroblast, read-out: IC50 ug/ml HCMV, HCMV, human foreskin fibroblasts
Summary of the method: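 Antiviral IC50 estimated from reduced reporter activity across compound amounts: lysates prepared 96 h after infection were tested with p-nitrophenyl- or methylumbelliferyl-glucuronide. Cells were human foreskin fibroblasts, infected alongside inhibitor with HCMV (e.g. RV145) expressing viral promoter-driven beta-glucuronidase.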

## COc1cc(OC)c(NC(=S)Nc2ccc(NC(=O)c3ccccc3SC)cc2)cc1Cl [Example 194, N-{4-[3-(5-Chloro-2,4-dimethoxy-phenyl)-thioureido]-phenyl}-2-methyl-sulfanyl-benzamide]
[1]
  inhibition at 10 µg/mL: 45%
[1]; read-out: IC50 (ug/ml) VZV
  IC50: > 10 µg/mL
[2]; HSV- I, Vero cells, ELISA
  IC50: 1.5 µg/mL (≈ 3.07 µM)
[3]
  IC50: > 10 µg/mL

## COC(=O)c1cccc(C(=O)Nc2ccc(NC(=S)Nc3cc(Cl)c(OC)cc3OC)cc2)c1 [Example 208, N-{4-[3-(5-Chloro-2,4-dimethoxy-phenyl)-thioureido]-phenyl}-isophthalamic acid methyl ester]
[1]
  inhibition at 10 µg/mL: 25%
[1]; read-out: IC50 (ug/ml) VZV
  IC50: > 10 µg/mL
[2]; HSV- I, Vero cells, ELISA
  IC50: 10 µg/mL (≈ 20 µM)
[3]
  IC50: > 10 µg/mL

## COc1cc(OC)c(NC(=S)Nc2ccc(NC(=O)c3cccc(C(=O)O)c3)cc2)cc1Cl [Example 209, N-{4-[3-(5-Chloro-2,4-dimethoxy-phenyl)-thioureido]-phenyl}-isophthalamic acid]
[1]
  inhibition at 10 µg/mL: 22%
[1]; read-out: IC50 (ug/ml) VZV
  IC50: > 10 µg/mL
[2]; HSV- I, Vero cells, ELISA
  IC50: > 50 µg/mL
[3]
  IC50: > 50 µg/mL

## COc1cc(OC)c(NC(=S)Nc2ccc(NC(=O)c3cccc(OCc4ccccc4)c3)cc2)cc1Cl [Example 210, 3-Benzyloxy-N-{4-[3-(5-chloro-2,4-dimethoxy-phenyl)-thioureido]-phenyl}-benzamide]
[1]
  inhibition at 10 µg/mL: 14%
[1]; read-out: IC50 (ug/ml) VZV
  IC50: > 10 µg/mL
[2]; HSV- I, Vero cells, ELISA
  IC50: 5 µg/mL (≈ 9.12 µM)
[3]
  IC50: > 10 µg/mL

## CCCCOc1cccc(C(=O)Nc2ccc(NC(=S)Nc3cc(Cl)c(OC)cc3OC)cc2)c1 [Example 219, 3-Butoxy-N-{4-[3-(5-chloro-2,4-dimethoxy-phenyl)-thioureido]-phenyl}-benzamide]
[1]
  inhibition at 10 µg/mL: 30%
[1]; read-out: IC50 (ug/ml) VZV
  IC50: > 10 µg/mL
[2]; HSV- I, Vero cells, ELISA
  IC50: 2.5 µg/mL (≈ 4.86 µM)
[3]
  IC50: > 10 µg/mL

## COc1cc(OC)c(NC(=S)Nc2ccc(NC(=O)c3ccccc3[S+](C)[O-])cc2)cc1Cl (centres unmarked) [Example 220, N-{4-[3-(5-Chloro-2,4-dimethoxy-phenyl)-thioureido]-phenyl}-2-methane-sulfinyl-benzamide]
[1]
  inhibition at 10 µg/mL: 35%
[1]; read-out: IC50 (ug/ml) VZV, VZV strain Ellen, HFF cells, ELISA
  IC50: > 10 µg/mL
[2]; Vero
  IC50: > 10 µg/mL
[3]
  IC50: > 10 µg/mL

## CCOC(=O)COc1cccc(C(=O)Nc2ccc(NC(=S)Nc3cc(Cl)c(OC)cc3OC)cc2)c1 [Example 221, (3-{4-[3-(5-Chloro-2,4-dimethoxy-phenyl)-thioureido]-phenylcarbamoyl}-phenoxy)-acetic acid ethyl ester]
[1]
  inhibition at 10 µg/mL: 17%
[1]; read-out: IC50 (ug/ml) VZV
  IC50: > 10 µg/mL
[2]; HSV- I, Vero cells, ELISA
  IC50: > 10 µg/mL
[3]
  IC50: > 10 µg/mL

## COc1cc(OC)c(NC(=S)Nc2ccc(NC(=O)c3cccc(OCC(=O)O)c3)cc2)cc1Cl [Example 222, (3-{4-[3-(5-Chloro-2,4-dimethoxy-phenyl)-thioureido]-phenylcarbamoyl}-phenoxy)-acetic acid]
[1]
  inhibition at 10 µg/mL: 17%
[1]; read-out: IC50 (ug/ml) VZV
  IC50: > 10 µg/mL
[2]; HSV- I, Vero cells, ELISA
  IC50: > 50 µg/mL
[3]
  IC50: > 50 µg/mL

## Cc1ccc(NC(=S)Nc2ccc(NC(=O)c3ccccc3F)cc2)cc1Cl [Example 231, N-{4-[3-(3-Chloro-4-methyl-phenyl)-thioureido]-phenyl}-2-fluoro-benzamide]
[1]
  inhibition at 10 µg/mL: 11%
[1]; read-out: IC50 (ug/ml) VZV
  IC50: > 10 µg/mL
[2]; HSV- I, Vero cells, ELISA
  IC50: 0.5 µg/mL (≈ 1.21 µM)
[3]
  IC50: > 10 µg/mL

## COc1cccc(C(=O)Nc2ccc(NC(=S)Nc3ccc(C)c(Cl)c3)cc2)c1 [Example 232, N-{4-[3-(3-Chloro-4-methyl-phenyl)-thioureido]-phenyl}-3-methoxy-benzamide]
[1]
  inhibition at 10 µg/mL: 21%
[1]; read-out: IC50 (ug/ml) VZV
  IC50: > 10 µg/mL
[2]; HSV- I, Vero cells, ELISA
  IC50: 1 µg/mL (≈ 2.35 µM)
[3]
  IC50: > 10 µg/mL

## Cc1ccc(NC(=S)Nc2ccc(NC(=O)c3ccccc3C)cc2)cc1Cl [Example 234, N-{4-[3-(3-Chloro-4-methyl-phenyl)-thioureido]-phenyl}-2-methyl-benzamide]
[1]
  inhibition at 10 µg/mL: 68%
[1]; read-out: IC50 (ug/ml) VZV
  IC50: > 10 µg/mL
[2]; HSV- I, Vero cells, ELISA
  IC50: 0.2 µg/mL (≈ 0.488 µM)
[3]
  IC50: 1 µg/mL (≈ 2.44 µM)

## Cc1ccc(NC(=S)Nc2ccc(NC(=O)c3c(F)cccc3F)cc2)cc1Cl [Example 235, N-{4-[3-(3-Chloro-4-methyl-phenyl)-thioureido]-phenyl}-2,6-difluoro-benzamide]
[1]
  inhibition at 10 µg/mL: 50%
[1]; read-out: IC50 (ug/ml) VZV
  IC50: > 10 µg/mL
[2]; HSV- I, Vero cells, ELISA
  IC50: 0.2 µg/mL (≈ 0.463 µM)
[3]
  IC50: > 10 µg/mL

## CN(c1ccc(NC(=S)Nc2ccc(NC(=O)c3ccccc3F)cc2)cc1Cl)C1CCCCC1 [Example 238, N-(4-{3-[3-Chloro-4-(cyclohexyl-methyl-amino)-phenyl]-thioureido}-phenyl)-2-fluoro-benzamide]
[1]
  inhibition at 10 µg/mL: 38%
[1]; read-out: IC50 (ug/ml) VZV
  IC50: > 10 µg/mL
[2]; HSV- I, Vero cells, ELISA
  IC50: > 10 µg/mL
[3]
  IC50: > 10 µg/mL

## O=C(Nc1ccc(NC(=S)Nc2ccc(Cl)c(C(F)(F)F)c2)cc1)c1ccccc1F [Example 244, N-{4-[3-(4-Chloro-3-trifluoromethyl-phenyl)-thioureido]-phenyl}-2-fluoro-benzamide]
[1]
  inhibition at 10 µg/mL: 18%
[1]; read-out: IC50 (ug/ml) VZV
  IC50: > 10 µg/mL
[2]; HSV- I, Vero cells, ELISA
  IC50: > 10 µg/mL
[3]
  IC50: > 10 µg/mL

## Cc1ccccc1C(=O)Nc1ccc(NC(=S)Nc2ccc(N(C)C3CCCCC3)c(Cl)c2)cc1 [Example 247, N-(4-{3-[3-Chloro-4-(cyclohexyl-methyl-amino)-phenyl]-thioureido}-phenyl)-2-methyl-benzamide]
[1]
  inhibition at 10 µg/mL: 74%
[1]; read-out: IC50 (ug/ml) VZV
  IC50: 5 µg/mL (≈ 9.86 µM)
[2]; HSV- I, Vero cells, ELISA
  IC50: > 10 µg/mL
[3]
  IC50: > 10 µg/mL

## CN(c1ccc(NC(=S)Nc2ccc(NC(=O)c3c(F)cccc3F)cc2)cc1Cl)C1CCCCC1 [Example 248, N-(4-{3-[3-Chloro-4-(cyclohexyl-methyl-amino)-phenyl]-thioureido}-phenyl)-2,6-difluoro-benzamide]
[1]
  inhibition at 10 µg/mL: 96%
[1]; read-out: IC50 (ug/ml) VZV
  IC50: 2 µg/mL (≈ 3.78 µM)
[2]; HSV- I, Vero cells, ELISA
  IC50: > 10 µg/mL
[3]
  IC50: 2 µg/mL (≈ 3.78 µM)

## COc1cccc(C(=O)Nc2ccc(NC(=S)Nc3ccc(N(C)C4CCCCC4)c(Cl)c3)cc2)c1 [Example 250, N-(4-{3-[3-Chloro-4-(cyclohexyl-methyl-amino)-phenyl]-thioureido}-phenyl)-3-methoxy-benzamide]
[1]
  inhibition at 10 µg/mL: 42%
[1]; read-out: IC50 (ug/ml) VZV
  IC50: > 10 µg/mL
[2]; HSV- I, Vero cells, ELISA
  IC50: > 10 µg/mL
[3]
  IC50: > 10 µg/mL

## COc1cc(OC)c(NC(=S)Nc2ccc(NC(=O)c3cccc(OC(C)=O)c3)cc2)cc1Cl [Example 253, Acetic acid 3-{4-[3-(5-chloro-2,4-dimethoxy-phenyl)-thioureido]-phenyl-carbamoyl}-phenyl ester]
[1]
  inhibition at 10 µg/mL: 100%
[1]; read-out: IC50 (ug/ml) VZV
  IC50: 6 µg/mL (≈ 12 µM)
[2]; HSV- I, Vero cells, ELISA
  IC50: 1.2 µg/mL (≈ 2.4 µM)
[3]
  IC50: 8 µg/mL (≈ 16 µM)

## COc1cc(OC)c(NC(=S)Nc2ccc(NC(=O)c3cccc(O)c3)cc2)cc1Cl [Example 254, N-{4-[3-(5-Chloro-2,4-dimethoxy-phenyl)-thioureido]-phenyl}-3-hydroxy-benzamide]
[1]
  inhibition at 10 µg/mL: 110%
[1]; read-out: IC50 (ug/ml) VZV
  IC50: 4 µg/mL (≈ 8.73 µM)
[2]; HSV- I, Vero cells, ELISA
  IC50: 0.9 µg/mL (≈ 1.97 µM)
[3]
  IC50: 4 µg/mL (≈ 8.73 µM)

## COc1cc(OC)c(NC(=S)Nc2ccc(NC(=O)c3cccc4c3OCO4)cc2)cc1Cl [Example 255, Benzo[1,3]dioxole-4-carboxylic acid {4-[3-(5-chloro-2,4-dimethoxy-phenyl)-thioureido]-phenyl}-amide]
[1]
  inhibition at 10 µg/mL: 0%
[1]; read-out: IC50 (ug/ml) VZV
  IC50: > 10 µg/mL
[2]; HSV- I, Vero cells, ELISA
  IC50: 1.2 µg/mL (≈ 2.47 µM)
[3]
  IC50: > 10 µg/mL

## COc1cc(OC)c(NC(=S)Nc2ccc(NC(=O)c3cccc(OC(F)(F)F)c3)cc2)cc1Cl [Example 256, N-{4-[3-(5-Chloro-2,4-dimethoxy-phenyl)-thioureido]-phenyl}-3-trifluoro-methoxy-benzamide]
[1]
  inhibition at 10 µg/mL: 15%
[1]; read-out: IC50 (ug/ml) VZV
  IC50: > 10 µg/mL
[2]; HSV- I, Vero cells, ELISA
  IC50: 2 µg/mL (≈ 3.8 µM)
[3]
  IC50: 9 µg/mL (≈ 17.1 µM)

## COc1cc(OC)c(NC(=S)Nc2ccc(NC(=O)c3cccc(OCCN(C)C)c3)cc2)cc1Cl [Example 257, N-{4-[3-(5-Chloro-2,4-dimethoxy-phenyl)-thioureido]-phenyl}-3-(2-dimethylamino-ethoxy)-benzamide]
[1]
  inhibition at 10 µg/mL: 105%
[1]; read-out: IC50 (ug/ml) VZV
  IC50: 2.5 µg/mL (≈ 4.73 µM)
[2]; HSV- I, Vero cells, ELISA
  IC50: 2.5 µg/mL (≈ 4.73 µM)
[3]
  IC50: 7 µg/mL (≈ 13.2 µM)

## COc1cc(OC)c(NC(=S)Nc2ccc(NC(=O)c3cccc(OCCN4CCOCC4)c3)cc2)cc1Cl [Example 258, N-{4-[3-(5-Chloro-2,4-dimethoxy-phenyl)-thioureido]-phenyl}-3-(2-morpholin-4-yl-ethoxy)-benzamide]
[1]
  inhibition at 10 µg/mL: 92%
[1]; read-out: IC50 (ug/ml) VZV
  IC50: 1.5 µg/mL (≈ 2.63 µM)
[2]; HSV- I, Vero cells, ELISA
  IC50: 1.5 µg/mL (≈ 2.63 µM)
[3]
  IC50: 5 µg/mL (≈ 8.76 µM)

Source: patent publication EP1137645B1, “ALPHA-METHYLBENZYL-CONTAINING THIOUREA INHIBITORS OF HERPES VIRUSES CONTAINING A […] GROUP” (Wyeth, priority 1998, dated 2000)
